How the values were obtained:
Hs578T [1] = assay: normalised response (% of control), CellTiter-Glo; higher = more viable cells (100 = DMSO, 0 = benzethonium chloride kill control); details: incubation time: 72 h
Procedure, shortened: (§1)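 Plates were normalised with 0.1 % DMSO as 100 and a positive kill control as 0. Breast cancer cell lines in 20 µl suspension had been seeded into 384-well plates with compound at 5 concentrations in 10-fold steps over a compound-specific 10,000-fold range, incubated 72 h, and read for CellTox Green fluorescence (485/520 nm) followed by CellTiter-Glo luminescence. Each value is the normalised signal at a single concentration.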

SK-BR-3 = assay: as above; details: incubation time: 72 h
Procedure, shortened: as §1

CAL-51 = assay: as above; details: incubation time: 72 h
Procedure, shortened: as §1

CAL-120 = assay: as above; details: incubation time: 72 h
Procedure, shortened: as §1

HCC1599 = assay: as above; details: incubation time: 72 h
Procedure, shortened: as §1

BT-549 [2] = assay: as above; details: incubation time: 72 h
Procedure, shortened: as §1

HCC1937 [3] = assay: as above; details: incubation time: 72 h
Procedure, shortened: as §1

CAL-148 = assay: as above; details: incubation time: 72 h
Procedure, shortened: as §1

MDA-MB-436 = assay: as above; details: incubation time: 72 h
Procedure, shortened: as §1

CAL-85-1 = assay: as above; details: incubation time: 72 h
Procedure, shortened: as §1

MFM-223 = assay: as above; details: incubation time: 72 h
Procedure, shortened: as §1

DU-4475 = assay: as above; details: incubation time: 72 h
Procedure, shortened: as §1

HCC1143 = assay: as above; details: incubation time: 72 h
Procedure, shortened: as §1

MCF-10A = assay: as above; details: incubation time: 72 h
Procedure, shortened: as §1

MDA-MB-468 [4] = assay: as above; details: incubation time: 72 h
Procedure, shortened: as §1

MDA-MB-453 = assay: as above; details: incubation time: 72 h
Procedure, shortened: as §1

Hs578T [5] = details: 72 h
Procedure, shortened: (§2)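 Breast cancer cell lines in 20 µl suspension were seeded onto 384-well plates that already held compound dissolved in 5 µl medium and were incubated for 72 h. Viability was measured by adding 2.5 µl CellTiter-Blue for 2 h at 37 °C and reading fluorescence at 560/590 nm. Each plate was normalised to vehicle and a positive kill control and checked by Z'-factor. EC50 was taken from a fitted percent-inhibition dose-response curve, censored at the highest concentration, and rows with a drug sensitivity score of zero were removed.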

BT-474 = details: 72 h
Procedure, shortened: as §2

BT-549 [6] = details: 72 h
Procedure, shortened: as §2

MDA-MB-468 [7] = details: 72 h
Procedure, shortened: as §2

HCC1937 [8] = details: 72 h
Procedure, shortened: as §2

MDA-MB-231 = details: 72 h
Procedure, shortened: as §2

EC50, CellTiter-Blue viability (BT-549 [6]) [µM]	EC50, CellTiter-Blue viability (MDA-MB-468 [7]) [µM]	EC50, CellTiter-Blue viability (MDA-MB-231) [µM]	SMILES	normalised response (Hs578T [1]) [%]	normalised response (SK-BR-3) [%]	normalised response (CAL-51) [%]	normalised response (CAL-120) [%]	normalised response (HCC1599) [%]	normalised response (BT-549 [2]) [%]	normalised response (HCC1937 [3]) [%]	normalised response (CAL-148) [%]	normalised response (MDA-MB-436) [%]	normalised response (CAL-85-1) [%]	normalised response (MFM-223) [%]	normalised response (DU-4475) [%]	normalised response (HCC1143) [%]	normalised response (MCF-10A) [%]	normalised response (MDA-MB-468 [4]) [%]	normalised response (MDA-MB-453) [%]	EC50, CellTiter-Blue viability (Hs578T [5]) [µM]	EC50, CellTiter-Blue viability (BT-474) [µM]	EC50, CellTiter-Blue viability (HCC1937 [8]) [µM]
–	–	–	Oc1ccc2c(c1)CC[C@H](c1ccccc1)[C@@H]2c1ccc(OCCN2CCCC2)cc1 [Lasofoxifene] (100 nM)	106	113	103	107	107	95.8	96	105	107	97.6	105	95.7	106	114	107	104	–	–	–
–	–	–	Cc1ccc(NC(=O)c2ccc(CN3CCN(C)CC3)cc2)cc1Nc1nc(-c2cccnc2)cs1 [Masitinib] (1000 nM)	102	105	80.5	95.5	106	92.9	101	103	105	111	103	103	99	105	89.9	89.7	–	–	–
1.55	> 10	–	O=C(Nc1cccnc1)N1CCC(Cc2cccc(Oc3ccc(C(F)(F)F)cn3)c2)CC1 [PF-3845]	–	–	–	–	–	–	–	–	–	–	–	–	–	–	–	–	2.57	8.6	–
–	–	–	O=C(Nc1cccnc1)N1CCC(Cc2cccc(Oc3ccc(C(F)(F)F)cn3)c2)CC1 [PF-3845] (1000 nM)	104	101	98.3	99	104	98.3	99	99.4	104	95	109	98.3	106	111	95.1	100	–	–	–
–	–	–	Cc1[nH]c2ccccc2c1CCNCc1ccc(/C=C/C(=O)NO)cc1 [Panobinostat] (100 nM)	27.4	1.76	24.6	41.5	24.2	46.2	63.1	3.76	55	25.9	35.2	4.91	26.3	49.1	28.2	3.15	–	–	–
–	–	–	COCC1(CO)C(=O)C2CCN1CC2 (stereo not drawn) [Prima-1 Met]	–	–	–	–	–	–	–	–	–	–	–	–	–	–	–	–	> 10	4.53	0.476
–	–	–	COCC1(CO)C(=O)C2CCN1CC2 (stereo not drawn) [Prima-1 Met] (1000 nM)	101	101	108	99.3	106	96.8	92.2	101	106	105	103	105	105	97.8	105	109	–	–	–
–	–	–	CNC(=O)c1cc(Oc2ccc(NC(=O)Nc3ccc(Cl)c(C(F)(F)F)c3)c(F)c2)ccn1 [Regorafenib] (1000 nM)	93.9	102	65.6	94.9	102	105	103	99.1	101	109	73.4	97.3	93.5	90.6	105	97.2	–	–	–
–	–	–	c1ccc2c(CCNc3ccc(Nc4ccncc4)cc3)c[nH]c2c1 [Serdemetan] (1000 nM)	104	79.6	24.4	93.7	114	84.2	88.5	71.1	89.5	125	97	90.3	83.8	86.2	77.8	110	–	–	–
–	–	12	S=P(N1CC1)(N1CC1)N1CC1 [Thio-TEPA]	–	–	–	–	–	–	–	–	–	–	–	–	–	–	–	–	–	–	–
–	–	–	CN(C)CCOc1ccc(/C(=C(/CCCl)c2ccccc2)c2ccccc2)cc1 [Toremifene] (1000 nM)	107	106	108	98.5	102	104	96.7	99.2	104	99.2	101	98.3	96.3	92.3	97.6	106	–	–	–
–	–	–	CC(C)C[C@@H](C(=O)N[C@H](C(=O)OC1CCCC1)c1ccccc1)[C@H](O)C(=O)NO [Tosedostat] (1000 nM)	84.6	76.2	91	43.4	96.6	55.9	67.4	72.9	73.6	48.2	70.5	88.4	69	87.3	28.7	48.7	–	–	–
–	–	–	COCC[n+]1c2c(n(Cc3cnccn3)c1C)C(=O)c1ccccc1C2=O [YM155] (1000 nM)	25.6	-0.16	-0.05	3.05	-0.01	-0.05	0.41	-0.23	-0.32	-0.48	10.7	1.45	0.6	-0.7	-0.57	9.91	–	–	–

From the supplement of paper PMC4862054
